For test [1], the target named is HBV core protein (UniProt P03146). Format: biochemical. The settings on record: read-out: Assembly Activity (IC50); BODIPY-FL labelled core protein, assembly started with NaCl, read after 6 min. In short, it runs like this:
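Fluorescence-quenching assembly assay using E. coli-expressed core protein 1–149 plus Cys150, labelled with BODIPY-FL maleimide, at 1.0–2.0 μM in 50 mM HEPES pH 7.5, 0.5% DMSO. Assembly started with NaCl to […]; fluorescence (ex 477/em 525 nm) read after 6 min. EC50 by non-linear regression, 8-point 0.5-log dilutions.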

In test [2] the test system is HBV. The test is described as follows: Determination of HBV DNA from the supernatants of HepAD38 cells (anti-HBV activity). It is filed as cell-based, hepatitis B virus. The following applies: Hepatitis B virus, 144 h; HBV DNA in HepAD38 supernatant at day 6; read-out: Cell Activity (EC50). In outline: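 HepAD38 cells (60,000/well) were treated with half-log compound dilutions in tetracycline-free medium to induce HBV production. On day 6, HBV DNA was purified from filtered supernatant and quantified by real-time PCR against plasmid standards. EC50 values came from non-linear regression of relative copy numbers, typically from three experiments in triplicate.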

Each structure is given as a SMILES string.

HBV core protein, sequence (P03146 whole entry, looked up): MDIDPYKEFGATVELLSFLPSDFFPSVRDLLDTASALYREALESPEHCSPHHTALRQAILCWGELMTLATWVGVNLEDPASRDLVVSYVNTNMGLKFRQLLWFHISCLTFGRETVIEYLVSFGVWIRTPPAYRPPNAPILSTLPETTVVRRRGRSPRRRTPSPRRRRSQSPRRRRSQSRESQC

As a reminder, the IC50 is the midpoint of a concentration-inhibition curve. What is called EC50 is the concentration that produces a half-maximal response. Turning to `Cc1cc(F)cc2[nH]c(C(=O)N3CCc4nc(N)sc4C3)cc12` [Example 169, 5-(6-fluoro-4-methyl-1H-indole-2-carbonyl)-4H,5H,6H,7H-[1,3]thiazolo[5,4-c]pyridin-2-amine], the IC50 in test [1] was under 5 µM. The EC50 in test [2] was under 1 µM.
In the same order, the values of `CCOCC(=O)Nc1nc2c(s1)CN(C(=O)c1cc3ccccc3[nH]1)CC2` [Example 4, 2-ethoxy-N-[5-(1H-indole-2-carbonyl)-4H,5H,6H,7H-[1,3]thiazolo[5,4-c]pyridin-2-yl]acetamide] are under 5 µM and under 1 µM.
In the same order, the values of `O=C(c1cc2c(F)cc(F)c(F)c2[nH]1)N1CCc2nc(NCC3CCOC3)sc2C1` (stereo not shown) [Example 106, 5-(4,6,7-trifluoro-1H-indole-2-carbonyl)-N-[(oxolan-3-yl)methyl]-4H,5H,6H,7H-[1,3]thiazolo[5,4-c]pyridin-2-amine] are under 5 µM and under 1 µM.
Taken in the same sequence, the figures for `CC(C)(C)OC(=O)N1CCOC(CNc2nc3c(s2)CN(C(=O)c2cc4ccccc4[nH]2)CC3)C1` (stereo not shown) [Example 273, tert-butyl 2-({[5-(1H-indole-2-carbonyl)-4H,5H,6H,7H-[1,3]thiazolo[5,4-c]pyridin-2-yl]amino}methyl)morpholine-4-carboxylate] were 5 to 10 µM and under 1 µM.
Turning to `CN1CCC(C(=O)Nc2nc3c(s2)CN(C(=O)c2cc4ccccc4[nH]2)CC3)CC1` [Example 409, N-[5-(1H-indole-2-carbonyl)-4H,5H,6H,7H-[1,3]thiazolo[5,4-c]pyridin-2-yl]-1-methylpiperidine-4-carboxamide], the IC50 in test [1] was under 5 µM. The EC50 in test [2] was under 1 µM.
Taken in the same sequence, the figures for `Cc1cccc2[nH]c(C(=O)N3CCc4nc(NC5CCOC5)sc4C3)cc12` (stereo not shown) [Example 76, 5-(4-methyl-1H-indole-2-carbonyl)-N-(oxolan-3-yl)-4H,5H,6H,7H-[1,3]thiazolo[5,4-c]pyridin-2-amine] were under 5 µM and under 1 µM.
`O=C(Nc1nc2c(s1)CN(C(=O)c1cc3ccccc3[nH]1)CC2)C1CCCCO1` (stereo not shown) [Example 315, N-[5-(1H-indole-2-carbonyl)-4H,5H,6H,7H-[1,3]thiazolo[5,4-c]pyridin-2-yl]oxane-2-carboxamide]: the IC50 in test [1] lay within 5 to 10 µM. Further, the EC50 in test [2] was under 1 µM.
Take `Nc1nc2c(s1)CCN(C(=O)c1cc3ccccc3[nH]1)CC2` [Example 25, 6-(1H-indole-2-carbonyl)-4H,5H,6H,7H,8H-[1,3]thiazolo[4,5-d]azepin-2-amine]: the IC50 in test [1] was under 100 µM. Besides, the EC50 in test [2] is under 100 µM.
Consider `Nc1nc2c(s1)CN(C(=O)c1cc3cccc(Cl)c3[nH]1)CC2` [Example 154, 5-(7-chloro-1H-indole-2-carbonyl)-4H,5H,6H,7H-[1,3]thiazolo[5,4-c]pyridin-2-amine], for which the IC50 in test [1] is under 5 µM. Further, the EC50 in test [2] is under 1 µM.
`O=C(Nc1nc2c(s1)CN(C(=O)c1cc3ccc(Cl)cc3[nH]1)CC2)C1CCOCC1` [Example 318, N-[5-(6-chloro-1H-indole-2-carbonyl)-4H,5H,6H,7H-[1,3]thiazolo[5,4-c]pyridin-2-yl]oxane-4-carboxamide]: the IC50 in test [1] was under 5 µM. Besides, the EC50 in test [2] was under 1 µM.
In the same order, the values of `C[C@H](O)CNc1nc2c(s1)CN(C(=O)c1cc3ccccc3[nH]1)CC2` [Example 99, (2S)-1-{[5-(1H-indole-2-carbonyl)-4H,5H,6H,7H-[1,3]thiazolo[5,4-c]pyridin-2-yl]amino}propan-2-ol] are under 5 µM and under 1 µM.
In the same order, the values of `Nc1nc2c(s1)CN(C(=O)c1cc3c(C(F)F)cccc3[nH]1)CC2` [Example 293, 5-[4-(difluoromethyl)-1H-indole-2-carbonyl]-4H,5H,6H,7H-[1,3]thiazolo[5,4-c]pyridin-2-amine] are under 5 µM and under 1 µM.
Regarding `Cc1ccc2cc(C(=O)N3CCc4nc(N)sc4C3)[nH]c2c1` [Example 150, 5-(6-methyl-1H-indole-2-carbonyl)-4H,5H,6H,7H-[1,3]thiazolo[5,4-c]pyridin-2-amine], in test [1], the IC50 is under 5 µM. In addition, in test [2], the EC50 is under 1 µM.
Turning to `O=C(c1cc2ccccc2[nH]1)N1CCc2nc(NCC3CCCCO3)sc2C1` (stereo not shown) [Example 35, 5-(1H-indole-2-carbonyl)-N-[(oxan-2-yl)methyl]-4H,5H,6H,7H-[1,3]thiazolo[5,4-c]pyridin-2-amine], in test [1], the IC50 was in the range of 5 to 10 µM. Further, in test [2], the EC50 is under 1 µM.
`O=C(c1cc2c(F)c(F)ccc2[nH]1)N1CCc2nc(NC3(CO)CCC3)sc2C1` [Example 222, (1-{[5-(4,5-difluoro-1H-indole-2-carbonyl)-4H,5H,6H,7H-[1,3]thiazolo[5,4-c]pyridin-2-yl]amino}cyclobutyl)methanol]: the IC50 in test [1] is under 5 µM. Moreover, the EC50 in test [2] was under 1 µM.
For `CCc1cc(F)cc2[nH]c(C(=O)N3CCc4nc(NCC5(O)CCC5)sc4C3)cc12` [Example 363, 1-({[5-(4-ethyl-6-fluoro-1H-indole-2-carbonyl)-4H,5H,6H,7H-[1,3]thiazolo[5,4-c]pyridin-2-yl]amino}methyl)cyclobutan-1-ol], in test [1], the IC50 is under 5 µM. Further, in test [2], the EC50 is under 1 µM.
Taken in the same sequence, the figures for `O=C(c1cc2ccccc2[nH]1)N1CCc2nc(NC(CO)CO)sc2C1` [Example 43, 2-{[5-(1H-indole-2-carbonyl)-4H,5H,6H,7H-[1,3]thiazolo[5,4-c]pyridin-2-yl]amino}propane-1,3-diol] were under 5 µM and under 1 µM.
Taken in the same sequence, the figures for `Nc1nc2c(s1)CN(C(=O)c1cc3cc(F)c(Cl)cc3[nH]1)CC2` [Example 277, 5-(6-chloro-5-fluoro-1H-indole-2-carbonyl)-4H,5H,6H,7H-[1,3]thiazolo[5,4-c]pyridin-2-amine] were under 5 µM and under 1 µM.
As to `Nc1nc2c(s1)CN(C(=O)c1cc3c(F)c(F)ccc3[nH]1)CC2` [Example 172, 5-(4,5-difluoro-1H-indole-2-carbonyl)-4H,5H,6H,7H-[1,3]thiazolo[5,4-c]pyridin-2-amine], in test [1], the IC50 was under 5 µM. Besides, in test [2], the EC50 was under 1 µM.
In the same order, the values of `CCc1cccc2[nH]c(C(=O)N3CCc4nc(N[C@H]5CC[C@@H](O)CC5)sc4C3)cc12` [Example 335, (1s,4s)-4-{[5-(4-ethyl-1H-indole-2-carbonyl)-4H,5H,6H,7H-[1,3]thiazolo[5,4-c]pyridin-2-yl]amino}cyclohexan-1-ol] are under 5 µM and under 1 µM.
Take `O=C(c1cc2ccccc2[nH]1)N1CCc2nc(NC3(CO)CCC3)sc2C1` [Example 48, (1-{[5-(1H-indole-2-carbonyl)-4H,5H,6H,7H-[1,3]thiazolo[5,4-c]pyridin-2-yl]amino}cyclobutyl)methanol]: the IC50 in test [1] was under 5 µM. Moreover, the half-maximal effective concentration (EC50) in test [2] was under 1 µM.
In the same order, the values of `CN(C)c1nc2c(s1)CN(C(=O)c1cc3c(Cl)cc(F)cc3[nH]1)CC2` [Example 209, 5-(4-chloro-6-fluoro-1H-indole-2-carbonyl)-N,N-dimethyl-4H,5H,6H,7H-[1,3]thiazolo[5,4-c]pyridin-2-amine] are 5 to 10 µM and 1 to 10 µM.
Taken in the same sequence, the figures for `CC(F)(F)c1cc(F)cc2[nH]c(C(=O)N3CCc4nc(NCC5(O)CCC5)sc4C3)cc12` [Example 371, 1-[({5-[4-(1,1-difluoroethyl)-6-fluoro-1H-indole-2-carbonyl]-4H,5H,6H,7H-[1,3]thiazolo[5,4-c]pyridin-2-yl}amino)methyl]cyclobutan-1-ol] were under 5 µM and under 1 µM.
In the same order, the values of `Nc1nc2c(s1)CN(C(=O)c1cc3c(Cl)c(Cl)ccc3[nH]1)CC2` [Example 176, 5-(4,5-dichloro-1H-indole-2-carbonyl)-4H,5H,6H,7H-[1,3]thiazolo[5,4-c]pyridin-2-amine] are 5 to 10 µM and 1 to 10 µM.
In the case of `O=C(c1cc2ccccc2[nH]1)N1CCc2nc(N[C@H]3CC[C@@H](O)C3)sc2C1` [Example 396, (1R,3S)-3-{[5-(1H-indole-2-carbonyl)-4H,5H,6H,7H-[1,3]thiazolo[5,4-c]pyridin-2-yl]amino}cyclopentan-1-ol], the IC50 in test [1] was under 5 µM. For the same compound, the EC50 in test [2] was under 1 µM.
Taken in the same sequence, the figures for `O=C(c1cc2ccc(Cl)cc2[nH]1)N1CCc2nc(NCC3CCOC3)sc2C1` (stereo not shown) [Example 125, 5-(6-chloro-1H-indole-2-carbonyl)-N-[(oxolan-3-yl)methyl]-4H,5H,6H,7H-[1,3]thiazolo[5,4-c]pyridin-2-amine] were under 5 µM and under 1 µM.
Taken in the same sequence, the figures for `Nc1nc2c(s1)CN(C(=O)c1cc3c(Cl)ccc(F)c3[nH]1)CC2` [Example 85, 5-(4-chloro-7-fluoro-1H-indole-2-carbonyl)-4H,5H,6H,7H-[1,3]thiazolo[5,4-c]pyridin-2-amine] were under 5 µM and under 1 µM.
Taken in the same sequence, the figures for `N#Cc1cccc2[nH]c(C(=O)N3CCc4nc(NCC5CCOC5)sc4C3)cc12` (stereo not shown) [Example 104, 5-(4-cyano-1H-indole-2-carbonyl)-N-[(oxolan-3-yl)methyl]-4H,5H,6H,7H-[1,3]thiazolo[5,4-c]pyridin-2-amine] were 5 to 10 µM and 1 to 10 µM.
Consider `COC(C)(CO)CNc1nc2c(s1)CN(C(=O)c1cc3ccccc3[nH]1)CC2` (stereo not shown) [Example 283, 3-{[5-(1H-indole-2-carbonyl)-4H,5H,6H,7H-[1,3]thiazolo[5,4-c]pyridin-2-yl]amino}-2-methoxy-2-methylpropan-1-ol], for which, in test [1], the IC50 lay within 5 to 10 µM. The EC50 in test [2] is under 1 µM.

(Values after patent US11267825B2 (AICURIS GMBH & CO. KG, priority 2017, dated 2022).)
